Read-outs that look alike come from different tables or passages of the source. Starred links: 1 amine or outer side, 2 acyl side, 3 side chain; linkers in the order of their positions; H or OH if unused. Non-standard residues stand in square brackets, D forms with d. Residues, ends and D or L forms follow the SMILES beside them. Groups on a side chain read outwards from the residue. *: point of attachment. C20 diacid = O=C(O)CCCCCCCCCCCCCCCCCCC(=O)*; C18 diacid = O=C(O)CCCCCCCCCCCCCCCCC(=O)*; γGlu = O=C(O)[C@H](CCC(=O)[*:2])N[*:1]; αMeF = C[C@](N)(Cc1ccccc1)C(=O)O; AEEA = NCCOCCOCC(=O)O; Aib = CC(C)(N)C(=O)O
Experiments:
[1] = Mouse acute food intake study; format: in vivo; conditions: male C57Bl/6 mice, s.c., cumulative food intake at 24 hr vs vehicle
Procedure, shortened: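 Single-housed male C57Bl/6 mice (8-9 weeks on arrival), chow-fed, acclimated and sham-dosed ≥2 times, were fasted 6-8 h, then given vehicle or peptide subcutaneously at 5 mL/kg 1-2 h before lights out. Food intake was recorded automatically over 48 h and analysed as cumulative intake.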

[2] = biological target: human GLP-1 receptor (hGLP-1R) (Homo sapiens, UniProt P43220); assay: cAMP production (HTRF) in CHO cells expressing hGLP-1R; format: cell-based; set-up: expressed in transfected cells; conditions: for EC50: geometric mean, read-out: hGLP-1R EC50; for % Relative Potency Ratio: % GLP-1R activity relative to GLP-1 / % GlucR activity relative to glucagon
Chain of human GLP-1 receptor (hGLP-1R) (P43220 24-463): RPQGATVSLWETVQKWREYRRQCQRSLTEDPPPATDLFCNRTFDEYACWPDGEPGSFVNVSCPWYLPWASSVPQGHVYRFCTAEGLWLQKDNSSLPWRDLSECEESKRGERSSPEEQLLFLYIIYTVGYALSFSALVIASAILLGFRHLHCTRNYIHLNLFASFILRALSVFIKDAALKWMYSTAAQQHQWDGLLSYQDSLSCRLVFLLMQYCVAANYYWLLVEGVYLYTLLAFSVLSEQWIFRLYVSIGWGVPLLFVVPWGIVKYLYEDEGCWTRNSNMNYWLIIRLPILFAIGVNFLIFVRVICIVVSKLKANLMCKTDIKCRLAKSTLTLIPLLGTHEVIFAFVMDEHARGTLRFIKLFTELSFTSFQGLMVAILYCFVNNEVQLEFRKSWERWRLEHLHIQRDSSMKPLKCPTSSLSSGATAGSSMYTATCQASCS
Procedure, shortened: (§1)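 Cells were resuspended in assay buffer at batch-optimized density, typically 1×10^5 cells/mL for hGLP-1R and 2×10^5 cells/mL for hGCGR. After 30 min incubation at room temperature with compound, cAMP was measured by two-step HTRF. EC50 values came from 4-parameter logistic fits of % Delta F.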

[3] = biological target: human glucagon receptor (hGCGR) (Homo sapiens, UniProt P47871); assay: cAMP production (HTRF) in CHO cells expressing hGCGR; format: cell-based; set-up: expressed in transfected cells; conditions: geometric mean, read-out: hGluc-R EC50
Chain of human glucagon receptor (hGCGR) (P47871 26-477): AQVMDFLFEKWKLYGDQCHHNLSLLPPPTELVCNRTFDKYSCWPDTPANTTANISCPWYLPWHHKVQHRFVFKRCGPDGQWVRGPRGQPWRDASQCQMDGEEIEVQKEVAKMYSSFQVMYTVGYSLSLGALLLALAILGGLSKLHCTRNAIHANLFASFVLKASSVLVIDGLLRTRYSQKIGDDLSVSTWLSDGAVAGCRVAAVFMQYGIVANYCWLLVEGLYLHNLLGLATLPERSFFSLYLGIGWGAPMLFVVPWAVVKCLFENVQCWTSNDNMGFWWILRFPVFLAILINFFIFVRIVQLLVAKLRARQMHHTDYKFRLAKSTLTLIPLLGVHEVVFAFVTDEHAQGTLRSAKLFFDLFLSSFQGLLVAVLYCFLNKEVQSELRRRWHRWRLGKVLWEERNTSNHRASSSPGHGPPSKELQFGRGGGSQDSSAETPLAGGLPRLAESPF
Procedure, shortened: as §1

EC50 ([2]; Table 7, peptides modified at position 20, cAMP in CHO hGLP-1R cells) [nM] | % Relative Potency Ratio ([2]; Table 7) | EC50 ([3]; Table 7, peptides modified at position 20, cAMP in CHO hGCGR cells) [nM] | % Relative Potency Ratio [2] | EC50 ([2]; cAMP, CHO cells, 0.1% BSA) [nM] | EC50 ([3]; cAMP, CHO cells, 0.1% BSA) [nM] | Structure (SMILES) | 24 hr % Vehicle Food Intake ([1]; dose 30 nmol/kg) [%] | 24 hr % Vehicle Food Intake ([1]; dose 10 nmol/kg) [%]
0.151 | 3.5 | 0.271 |  |  |  | CC[C@H](C)[C@H](NC(=O)C(C)(C)NC(=O)[C@H](C)NC(=O)[C@@H](NC(=O)[C@](C)(Cc1ccccc1)NC(=O)[C@H](CC(=O)O)NC(=O)[C@H](CCCCNC(=O)COCCOCCNC(=O)COCCOCCNC(=O)CC[C@H](NC(=O)CC[C@H](NC(=O)CCCCCCCCCCCCCCCCCCC(=O)O)C(=O)O)C(=O)O)NC(=O)[C@H](C)NC(=O)[C@H](C)NC(=O)[C@H](CCCNC(=N)N)NC(=O)[C@H](CO)NC(=O)[C@H](CC(=O)O)NC(=O)[C@H](CC(C)C)NC(=O)[C@](C)(Cc1ccccc1)NC(=O)[C@H](CCCCN)NC(=O)[C@H](CO)NC(=O)[C@@H](NC(=O)[C@H](CC(=O)O)NC(=O)[C@H](CO)NC(=O)[C@@H](NC(=O)[C@](C)(Cc1ccccc1)NC(=O)[C@H](CO)NC(=O)CNC(=O)[C@H](Cc1c[nH]cn1)NC(=O)C(C)(C)NC(=O)[C@@H](N)Cc1c[nH]cn1)[C@@H](C)O)C(C)C)[C@@H](C)CC)C(=O)N[C@@H](C)C(=O)N[C@@H](CCC(=O)O)C(=O)N[C@H](C(N)=O)[C@@H](C)O [Peptide 302] (H-H[Aib]HGS[αMeF]TSDVSK[αMeF]LDSRAAK([AEEA-AEEA-γGlu-γGlu-C20 diacid])D[αMeF]IA[Aib]IAET-NH2) | 46.4 | 
 |  |  | 2.6 | 0.0234 | 0.0304 | CC[C@H](C)[C@H](NC(=O)[C@H](Cc1c[nH]c2ccccc12)NC(=O)[C@H](CCCCNC(=O)COCCOCCNC(=O)COCCOCCNC(=O)CC[C@H](NC(=O)CC[C@H](NC(=O)CCCCCCCCCCCCCCCCC(=O)O)C(=O)O)C(=O)O)NC(=O)[C@@H](NC(=O)[C@H](Cc1ccccc1)NC(=O)[C@H](CC(=O)O)NC(=O)[C@H](CCC(N)=O)NC(=O)[C@H](C)NC(=O)[C@H](C)NC(=O)[C@H](CCCNC(=N)N)NC(=O)[C@H](CO)NC(=O)[C@H](CC(=O)O)NC(=O)[C@H](CC(C)C)NC(=O)[C@](C)(Cc1ccccc1)NC(=O)[C@H](CCCCN)NC(=O)[C@H](CO)NC(=O)[C@@H](NC(=O)[C@H](CC(=O)O)NC(=O)[C@H](CO)NC(=O)[C@@H](NC(=O)[C@](C)(Cc1ccccc1)NC(=O)[C@H](CO)NC(=O)CNC(=O)[C@H](Cc1c[nH]cn1)NC(=O)C(C)(C)NC(=O)[C@@H](N)Cc1c[nH]cn1)[C@@H](C)O)C(C)C)C(C)C)C(=O)N[C@@H](C)C(=O)N[C@@H](CC(N)=O)C(=O)N[C@H](C(=O)NCC(=O)NCC(N)=O)[C@@H](C)O [Peptide 364] (H-H[Aib]HGS[αMeF]TSDVSK[αMeF]LDSRAAQDFVK([AEEA-AEEA-γGlu-γGlu-C18 diacid])WIANTGG-NH2) |  | 63.7
 |  |  | 1.7 | 0.031 | 0.0274 | CC[C@H](C)[C@H](NC(=O)C(C)(C)NC(=O)[C@H](CCCCNC(=O)COCCOCCNC(=O)COCCOCCNC(=O)CC[C@H](NC(=O)CCCCCCCCCCCCCCCCC(=O)O)C(=O)O)NC(=O)[C@@H](NC(=O)[C@H](Cc1ccccc1)NC(=O)[C@H](CC(=O)O)NC(=O)[C@H](CCC(N)=O)NC(=O)[C@H](C)NC(=O)[C@H](C)NC(=O)[C@H](CCCNC(=N)N)NC(=O)[C@H](CO)NC(=O)[C@H](CC(=O)O)NC(=O)[C@H](CC(C)C)NC(=O)[C@](C)(Cc1ccccc1)NC(=O)[C@H](CCCCN)NC(=O)[C@H](CO)NC(=O)[C@@H](NC(=O)[C@H](CC(=O)O)NC(=O)[C@H](CO)NC(=O)[C@@H](NC(=O)[C@](C)(Cc1ccccc1)NC(=O)[C@H](CO)NC(=O)CNC(=O)[C@H](Cc1c[nH]cn1)NC(=O)C(C)(C)NC(=O)[C@@H](N)Cc1c[nH]cn1)[C@@H](C)O)C(C)C)C(C)C)C(=O)N[C@@H](C)C(=O)N[C@@H](CC(N)=O)C(=O)N[C@H](C(N)=O)[C@@H](C)O [Peptide 366] (H-H[Aib]HGS[αMeF]TSDVSK[αMeF]LDSRAAQDFVK([AEEA-AEEA-γGlu-C18 diacid])[Aib]IANT-NH2; N-terminus assumed) |  | 83.5
 |  |  | 1.4 | 0.225 | 0.155 | CC[C@H](C)[C@H](NC(=O)C(C)(C)NC(=O)[C@H](CCCCNC(=O)COCCOCCNC(=O)COCCOCCNC(=O)CC[C@H](NC(=O)CC[C@H](NC(=O)CCCCCCCCCCCCCCCCCCC(=O)O)C(=O)O)C(=O)O)NC(=O)[C@@H](NC(=O)[C@](C)(Cc1ccccc1)NC(=O)[C@H](CC(=O)O)NC(=O)[C@H](CCC(N)=O)NC(=O)[C@H](C)NC(=O)[C@H](C)NC(=O)[C@H](CCCNC(=N)N)NC(=O)[C@H](CO)NC(=O)[C@H](CC(=O)O)NC(=O)[C@H](CC(C)C)NC(=O)[C@](C)(Cc1ccccc1)NC(=O)[C@H](CCCCN)NC(=O)[C@H](CO)NC(=O)[C@@H](NC(=O)[C@H](CC(=O)O)NC(=O)[C@H](CO)NC(=O)[C@@H](NC(=O)[C@](C)(Cc1ccccc1)NC(=O)[C@H](CO)NC(=O)CNC(=O)[C@H](Cc1c[nH]cn1)NC(=O)C(C)(C)NC(=O)[C@@H](N)Cc1c[nH]cn1)[C@@H](C)O)C(C)C)C(C)C)C(=O)N[C@@H](C)C(=O)N[C@@H](CC(N)=O)C(=O)N[C@H](C(N)=O)[C@@H](C)O [Peptide 375] (H-H[Aib]HGS[αMeF]TSDVSK[αMeF]LDSRAAQD[αMeF]VK([AEEA-AEEA-γGlu-γGlu-C20 diacid])[Aib]IANT-NH2; N-terminus assumed) |  | 66.0

From US20250353891A1 (MEDIMMUNE LIMITED, priority 2022, published 2025)
